Columns and labels:
[1] = system: Dirofilaria immitis microfilariae; experiment: Microfilaricidal activity against Dirofilaria immitis microfilariae in 96-well plates; assay type: cell-based; conditions: in Canis lupus familiaris, read-out: EC50 (half maximal effective concentration), microfilaricidal activity
[2] = system: L4 larvae of Dirofilaria immitis; experiment: microbe, parasite or virus in culture; assay type: cell-based; conditions: 72 h, read-out: MIC100 (lowest dose that results in complete loss of motility)

With C[C@@H](CN1CCN(c2ccc(OC(F)(F)F)cc2)CC1)C(=O)N1CCC(Nc2ccc([N+](=O)[O-])c(C(F)(F)F)c2)CC1 [Example 1037] the EC50 [1] was under 10 µM and the MIC [2] was under 5 µM.

Source: patent US20170196854A1, “USE OF ANTHELMINTIC AGENTS AGAINST DIROFILARIA IMMITIS” (INTERVET INTERNATIONAL B.V., priority 2014, published 2017)
